Seven molecules from US20050043314A1, “Substituted alkylaminopyridazinone derivatives, process for the preparation thereof and pharmaceutical composition containing the same” (priority 2001, published 2005) can be followed below.

In data set [1] the test system is male Wistar rats. The data set is described as follows: Vogel lick-conflict (drinking conflict) test. It is filed as in vivo, rat. The note with it: intraperitoneally, 30 min prior to test; number of tolerated shocks. On the procedure:
Experiments were performed in a PC operated system (LIIKOSYS, Experimetria, Hungary) consisted of 8 test chambers (20 cm×20 cm×20 cm Plexiglas boxes) each of which was equipped with a water fountain system mounted at appropriate height on the wall of the chamber and metal grid floor for delivering electric shocks. 160-180 g male Wistar rats (N═8) were deprived of drinking water 48 h and fasted for 24 h prior to test. Test and reference compounds or vehicle were administered intraperitoneally, 30 min prior to test. All procedures were carried out in a quiet, air-conditioned room between 07:30 and 13:00 h at an ambient temperature of 23±2° C. At the beginning of the test the animals were placed in the test chamber where they had free access to drinking water for a 30 s grace period. After that, electric shocks (600 μA, 0.6 s) were applied through the drinking spout following every 20 licks during the 5 min test period (Vogel et al, 1971). Number of punished licks were recorded and stored by an IBM compatible computer. Means±SEM of numbers of tolerated shocks were calculated in each group, statistical analysis of data was performed by one way ANOVA followed by Duncan's test (STATISTICA). Diazepam [7-chloro-1,3-dihydro-1-methyl-5-phenyl-2H-1,4-benzodiazepine-2-one] was used as the reference substance.

Another data set concerns mouse. The experiment in a line: Inhibition of spontaneous motor activity (Dews instrument). The data set is classed as in vivo. The note with it: per os, 60 min before test, 30 min recording; sedative effect. On the procedure: The effect on spontaneous motor activity was investigated according to Borsy and co-workers [Borsy, J. et al, Arch. Int. Pharmacodyn., 124, 180-190 (1960)] in a ten channel Dews instrument, with 1-1 animal in each channel. Animals were placed into the instrument 60 min after per os treatment with either vehicle or test compound, and interruptions of infrared beams were recorded for 30 min. […] Diazepam was used as the reference substance.

Another data set has as its system Male Sprague-Dawley rats. The data set is described as follows: Elevated plus-maze test in rats. The data set is classed as in vivo, rat. The note with it: 60 min after treatment, minimal effective dose regarding time spent in the open arms. An excerpt: Test have been performed as described by Pellow and co-workers [J.Neurosci. Methods, 14, 149 (1985)]. A wooden cross, 15 cm wide with 100 cm long arms was used for the experiments. The sides and ends of two opposite arms of the cross were equipped with 40 cm high walls, however, the arms were open to the […] central area (closed arms). The two other opposite arms were not encircled by walls (open arms).
Male Sprague-Dawley rats weighing 200-220 g were used for the experiments. The animals were placed in the central area of the equipment 60 min after treatment and the following four parameters have been observed for the 5 min test time: • time spent in the open arms, • time spent in the closed arms, • number of entries into the open arms, • number of entries into the closed arms.
The effect was expressed as percent increase in either the time (measured in sec) spent in the open arms or number of entries into the open arms. MEDs (minimal effective dose) were determined for each compound regarding the time spent in the open arms
Buspirone [8-{4-[4-(2-pyrimidinyl)-1-piperazinyl]butyl}-8-azaspiro[4,5]decane-7,9-dione] was used as the reference substance.

Data set [2] concerns male Wistar rats. The experiment in a line: Effects on blood pressure in conscious, freely moving rats (radiotelemetry). The data set is classed as in vivo, rat. An excerpt: A 7 day postoperative recovery period was allowed.
None of the compounds examined reduced blood pressure of the test animals.

Bounds are passed on as bounds.

As to `O=c1cc(NCCN2CCN(c3ccccn3)CC2)cn[nH]1` [Example 4, 5-[2-(4-pyridin-2-ylpiperazine-;1-yl)ethylamino]-2H-pyridazine-3-one], the “MED in mg/kg ip.” value in the data set on male Wistar rats [1] came out at 10.0 mg/kg.
In the case of “5-{2-[4-(methoxytrifluoromethylphenyl)-piperazine-1-yl]-ethylamino}-2H-pyridazine-3-one trihydrochloride [Example 1]”, the “MED in mg/kg ip.” value with male Wistar rats [1] is 20.0 mg/kg.
The melting point is the temperature, or range, at which the solid turns liquid. Regarding `O=c1cc(NCCN2CCN(c3ccccc3F)CC2)cn[nH]1` [Example 2, 5-{2-[4-(2-fluorophenyl)piperazine-1-yl]ethyl-amino}-2H-pyridazine-3-one], the melting point lay within 103 to 105 °C. Also, in the data set on male Wistar rats [1], the “MED in mg/kg ip.” value is given as 20.0 mg/kg. Also, in the data set on mouse, the “ID50 in mg/kg po.” value worked out at 21.0 mg/kg.
Turning to `O=c1cc(NCCN2CCN(c3ccccc3)CC2)cn[nH]1` [Example 3, 5-{2-[4phenylpiperazine-1-yl]ethylamino}2H-pyridazine-3-one], the melting point was 147 to 149 °C. Further, the “MED in mg/kg po.” value in the data set with Male Sprague-Dawley rats turned out to be 0.1 mg/kg. In the data set with male Wistar rats [1], the “MED in mg/kg ip.” value came out at 5.0 mg/kg. For the same molecule, the “ID50 in mg/kg po.” value with mouse stood at 60.0 mg/kg.
In turn, `O=c1cc(NCCN2CCN(c3ccc(F)cc3)CC2)cn[nH]1` [Example 7, 5-{2-[4-(4-fluorophenyl)piperazine-1-yl]ethyl-amino]-2H-pyridazine-3-one] showed a melting point of 96 to 98 °C. Also, the “MED in mg/kg ip.” value in the data set with male Wistar rats [1] is listed as 20.0 mg/kg. For the same molecule, in the data set with male Wistar rats [2] (blood pressure compared to placebo, N.S. = Not significant statistically, two-way ANOVA with Scheffe's post hoc test), the “Results of statistical evaluation” value is “N.S”. Further, the “Mean blood pressure after treatment with test compound, Mean” value in the data set with male Wistar rats [2] (mean arterial blood pressure for 6 hours after oral treatment, conscious rats) stood at 92.7 mmHg.
`O=c1cc(NCCN2CCN(c3ncccn3)CC2)cn[nH]1` [Example 5, 5-[2-(4-pyrimidin-2-ylpiperazine-1-yl)ethylamino]-2H-pyridazine-3-one] gave a melting point of 199 to 201 °C. In addition, in the data set with male Wistar rats [1], the “MED in mg/kg ip.” value came to 20.0 mg/kg. In addition, the “ID50 in mg/kg po.” value in the data set with mouse was over 100.0 mg/kg.
For the molecule `CN1C(=O)CN=C(c2ccccc2)c2cc(Cl)ccc21` [Diazepam, 7-chloro-1,3-dihydro-1-methyl-5-phenyl-2H-1,4-benzodiazepine-2-one, reference compound], in the data set on male Wistar rats [1], the “MED in mg/kg ip.” value was found to be 5.0 mg/kg. In the data set with mouse, the “ID50 in mg/kg po.” value is 7.0 mg/kg.
